According to the supplement of paper PMC4862054:
“And” between values parts separate entries of the source, which are not always exact repeats. Equal entries are not always repeated.

How the values were obtained:
Experiment in all cases: normalised viability (% of control), CellTiter-Blue; higher = more viable cells (about 100 = DMSO control)
Settings in all cases: incubation time: 72 h
MDA-MB-231 = system: MDA-MB-231
In short: (§1)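 Breast cancer cell lines were treated for 72 h in 384-well format and measured by CellTiter-Blue fluorescence at 560/590 nm. Results were normalised per plate to vehicle (100) and a positive kill control (0). The entry is normalised viability at a single listed concentration of the series.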

MDA-MB-468 = system: MDA-MB-468
In short: as §1

CAL-148 = system: CAL-148
In short: as §1

SK-BR-3 = system: SK-BR-3
In short: as §1

CAL-85-1 = system: CAL-85-1
In short: as §1

HDQ-P1 = system: HDQ-P1
In short: as §1

MDA-MB-453 = system: MDA-MB-453
In short: as §1

DU-4475 = system: DU-4475
In short: as §1

CAL-120 = system: CAL-120
In short: as §1

Compound	normalised viability (MDA-MB-231; 1000 nM)	normalised viability (MDA-MB-231; 10000 nM)	normalised viability (MDA-MB-468; 10 nM)	normalised viability (MDA-MB-468; 1000 nM)	normalised viability (MDA-MB-468; 10000 nM)	normalised viability (CAL-148; 3 nM)	normalised viability (CAL-148; 30 nM)	normalised viability (CAL-148; 100 nM)	normalised viability (SK-BR-3; 10 nM)	normalised viability (SK-BR-3; 1000 nM)	normalised viability (SK-BR-3; 10000 nM)	normalised viability (CAL-85-1; 3 nM)	normalised viability (CAL-85-1; 30 nM)	normalised viability (CAL-85-1; 100 nM)	normalised viability (HDQ-P1; 100 nM)	normalised viability (MDA-MB-453; 3 nM)	normalised viability (MDA-MB-453; 30 nM)	normalised viability (DU-4475; 3 nM)	normalised viability (CAL-120; 1000 nM)	normalised viability (HDQ-P1; 3 nM)	other results
CS(=O)(=O)CCNCc1ccc(-c2ccc3ncnc(Nc4ccc(OCc5cccc(F)c5)c(Cl)c4)c3c2)o1 [Lapatinib]	85.8% and 109%	52.9% and 52.4%	100% and 105%	64.2% and 68.2%	11.8% and 16.3%	92.2% and 89.8%	89.5% and 93.5%	89.3% and 83.7%	78.8% and 92.4%	18.2% and 22.2%	6.7% and 8.97%	97.7% and 91.7%	90.3% and 92.4%	94.6% and 91.4%	87.1% and 110%	100% and 118%	72.4% and 85.8%	104% and 85.5%	92% and 102%	–	normalised viability (MDA-MB-453; 100 nM): 59.9% and 59%; normalised viability (DU-4475; 30 nM): 97.9% and 96.2%; normalised viability (DU-4475; 100 nM): 95.9% and 91.3%; normalised viability (CAL-120; 10 nM): 92.4% and 99.8%
CCOc1cc2ncc(C#N)c(Nc3ccc(OCc4ccccn4)c(Cl)c3)c2cc1NC(=O)/C=C/CN(C)C [Neratinib]	135%	–	–	106%	–	78.6%	–	–	–	114%	–	100%	–	–	–	99%	–	95.4%	82.7%	115%	normalised viability (MDA-MB-231; 1 nM): 114%; normalised viability (MDA-MB-231; 100 nM): 131%; normalised viability (MDA-MB-468; 1 nM): 110%; normalised viability (MDA-MB-468; 100 nM): 114%; normalised viability (CAL-148; 0.3 nM): 86.6%; normalised viability (CAL-148; 10 nM): 93.9%; normalised viability (SK-BR-3; 1 nM): 107%; normalised viability (SK-BR-3; 100 nM): 95.8%; normalised viability (CAL-85-1; 0.3 nM): 92.7%; normalised viability (CAL-85-1; 10 nM): 97.1%; normalised viability (HDQ-P1; 0.3 nM): 123%; normalised viability (HDQ-P1; 10 nM): 106%; normalised viability (MDA-MB-453; 0.3 nM): 106%; normalised viability (MDA-MB-453; 10 nM): 88.3%; normalised viability (DU-4475; 0.3 nM): 103%; normalised viability (DU-4475; 10 nM): 101%; normalised viability (CAL-120; 1 nM): 95.7%; normalised viability (CAL-120; 100 nM): 76%
COC1=C2C[C@@H](C)C[C@H](OC)[C@H](O)[C@@H](C)/C=C(\C)[C@H](OC(N)=O)[C@@H](OC)/C=C\C=C(/C)C(=O)NC(=CC1=O)C2=O [Geldanamycin]	15.3%	4.86%	99%	11.2%	8.18%	102%	110%	108%	101%	14.9%	9.38%	104%	87.4%	99.2%	44.8%	121%	97.3%	106%	13.6%	124%	normalised viability (MDA-MB-231; 10 nM): 102%; normalised viability (HDQ-P1; 30 nM): 104%; normalised viability (MDA-MB-453; 100 nM): 51.3%; normalised viability (DU-4475; 30 nM): 113%; normalised viability (DU-4475; 100 nM): 73.2%; normalised viability (CAL-120; 10 nM): 91%; normalised viability (CAL-120; 10000 nM): 6.18%
CC(C)(C)c1cc(NC(=O)Nc2ccc(-c3cn4c(n3)sc3cc(OCCN5CCOCC5)ccc34)cc2)no1 [Quizartinib]	89.7%	–	–	86.1%	–	102%	–	–	–	96.5%	–	97.8%	–	–	–	110%	–	98.6%	96.6%	103%	normalised viability (MDA-MB-231; 1 nM): 104%; normalised viability (MDA-MB-231; 100 nM): 118%; normalised viability (MDA-MB-468; 1 nM): 108%; normalised viability (MDA-MB-468; 100 nM): 108%; normalised viability (CAL-148; 0.3 nM): 98.1%; normalised viability (CAL-148; 10 nM): 96.2%; normalised viability (SK-BR-3; 1 nM): 88.4%; normalised viability (SK-BR-3; 100 nM): 93.5%; normalised viability (CAL-85-1; 0.3 nM): 96.9%; normalised viability (CAL-85-1; 10 nM): 105%; normalised viability (HDQ-P1; 0.3 nM): 94.2%; normalised viability (HDQ-P1; 10 nM): 98.8%; normalised viability (MDA-MB-453; 0.3 nM): 118%; normalised viability (MDA-MB-453; 10 nM): 105%; normalised viability (DU-4475; 0.3 nM): 95.8%; normalised viability (DU-4475; 10 nM): 93.3%; normalised viability (CAL-120; 1 nM): 93.8%; normalised viability (CAL-120; 100 nM): 96.6%
Cn1c(=O)c(F)c(Nc2ccc(I)cc2F)c2c(=O)n(C[C@@H](O)CO)cnc21 [TAK-733]	33.8%	–	–	95%	–	99.5%	–	–	–	112%	–	97.8%	–	–	–	104%	–	56.7%	56.3%	118%	normalised viability (MDA-MB-231; 1 nM): 89.2%; normalised viability (MDA-MB-231; 100 nM): 36.1%; normalised viability (MDA-MB-468; 1 nM): 99.4%; normalised viability (MDA-MB-468; 100 nM): 84.6%; normalised viability (CAL-148; 0.3 nM): 95%; normalised viability (CAL-148; 10 nM): 99.5%; normalised viability (SK-BR-3; 1 nM): 106%; normalised viability (SK-BR-3; 100 nM): 102%; normalised viability (CAL-85-1; 0.3 nM): 93.5%; normalised viability (CAL-85-1; 10 nM): 96.1%; normalised viability (HDQ-P1; 0.3 nM): 113%; normalised viability (HDQ-P1; 10 nM): 91.6%; normalised viability (MDA-MB-453; 0.3 nM): 114%; normalised viability (MDA-MB-453; 10 nM): 115%; normalised viability (DU-4475; 0.3 nM): 84.7%; normalised viability (DU-4475; 10 nM): 15.3%; normalised viability (CAL-120; 1 nM): 92.4%; normalised viability (CAL-120; 100 nM): 74.7%
C[C@@]1(C(=O)Nc2ccc(F)nc2)CCCN1c1nc(Nc2cc(C3CC3)n[nH]2)c2cccn2n1	46%	31.4%	115%	61%	40.7%	88.5%	99.1%	95.1%	99.1%	71%	56.4%	92%	75%	87.9%	73.5%	100%	84%	97.3%	63%	120%	normalised viability (MDA-MB-231; 10 nM): 90.6%; normalised viability (HDQ-P1; 30 nM): 82%; normalised viability (MDA-MB-453; 100 nM): 105%; normalised viability (DU-4475; 30 nM): 91.7%; normalised viability (DU-4475; 100 nM): 83.8%; normalised viability (CAL-120; 10 nM): 94%; normalised viability (CAL-120; 10000 nM): 21.1%
COc1cccc2c1C(=O)c1c(O)c3c(c(O)c1C2=O)C[C@@](O)(C(C)=O)C[C@@H]3O[C@H]1C[C@H](N)[C@H](O)[C@H](C)O1 [Daunorubicin]	8.64%	–	–	6.86%	–	106%	–	–	–	6.42%	–	86.8%	–	–	–	114%	–	86.3%	9.51%	94.5%	normalised viability (MDA-MB-231; 1 nM): 101%; normalised viability (MDA-MB-231; 100 nM): 38.4%; normalised viability (MDA-MB-468; 1 nM): 102%; normalised viability (MDA-MB-468; 100 nM): 52.2%; normalised viability (CAL-148; 0.3 nM): 88.5%; normalised viability (CAL-148; 10 nM): 77.6%; normalised viability (SK-BR-3; 1 nM): 103%; normalised viability (SK-BR-3; 100 nM): 40.1%; normalised viability (CAL-85-1; 0.3 nM): 87.3%; normalised viability (CAL-85-1; 10 nM): 89.1%; normalised viability (HDQ-P1; 0.3 nM): 133%; normalised viability (HDQ-P1; 10 nM): 97.3%; normalised viability (MDA-MB-453; 0.3 nM): 110%; normalised viability (MDA-MB-453; 10 nM): 97%; normalised viability (DU-4475; 0.3 nM): 84.7%; normalised viability (DU-4475; 10 nM): 70.7%; normalised viability (CAL-120; 1 nM): 80.3%; normalised viability (CAL-120; 100 nM): 35.9%
COc1ccc(C2=N[C@@H](c3ccc(Cl)cc3)[C@@H](c3ccc(Cl)cc3)N2C(=O)N2CCNC(=O)C2)c(OC(C)C)c1 [Nutlin-3]	97.7%	104%	104%	104%	90.1%	86%	89.8%	95.6%	103%	98.1%	101%	84.5%	78.5%	90.4%	107%	104%	92%	85.7%	85.2%	107%	normalised viability (MDA-MB-231; 10 nM): 102%; normalised viability (HDQ-P1; 30 nM): 112%; normalised viability (MDA-MB-453; 100 nM): 99.8%; normalised viability (DU-4475; 30 nM): 90.3%; normalised viability (DU-4475; 100 nM): 87.4%; normalised viability (CAL-120; 10 nM): 82.8%; normalised viability (CAL-120; 10000 nM): 96.6%
